In patent publication US6448273B1, “Orally active iron (III) chelators” (BTG International Limited, priority 1997, dated 2002):
Where a name gives a salt, the structure may show the parent alone. Read-outs that look alike come from different tables or passages of the source.

How the values were obtained:
pKa of the ligand = assay type: physicochemical
[1] = Iron III Mobilisation Efficacy Assay in Rat: Oral Administration; assay type: in vivo; settings: for Efficacy: iron mobilisation less control
Method: Control rats were given an equivalent volume of water. The rats were placed in individual metabolic cages and their urine and faeces collected. One hour after the administration they were allowed access to food, with no restriction on water being made throughout the study period. The investigation was terminated 24 hours after the ^59Fe ferritin administration when rats were sacrificed and their livers and gastrointestinal tracts, including all contents including faeces, were removed for gamma counting.

[2] = cited from earlier work
[3] = Distribution coefficient DpH7.4 (Kpart), octanol/MOPS pH 7.4; assay type: physicochemical
Text: The requirements for orally active chelators are set out in Table 4 of Hider et al as (i) good absorption from tile gastrointestinal tract, (ii) efficient liver extraction, (iii) poor entry into peripheral cells such as thymus, muscle, heart and bone marrow and (iv) poor ability to penetrate the blood-brain barrier and maternal/placental barriers.

[4] = in vivo; cited from earlier work
[5] = pM for Iron III (affinity for iron as Fe III); assay type: physicochemical; settings: negative log ferric ion concentration; total iron 10^-6 M, ligand 10^-5 M
Text: The present inventors now have provided a group of 3-hydroxypyridin-4-one iron chelators having improved properties as compared to the prior art as assessed against the criteria set out above. […] Preferred compounds have efficiency of iron mobilisation of in excess of 52% when given orally to rats. […]

[6] = Iron (III) complex stability constant Logβ3; assay type: physicochemical
[7] = method marked (p), first pKa, read-out: pKa, first value (p)
[8] = method marked (p), second pKa, read-out: pKa, second value (p)
[9] = method marked (s), second pKa, read-out: pKa, second value (s)
[10] = method marked (s), first pKa, read-out: pKa, first value (s)

SMILES	melting point	pKa, first value (s) (pKa of the ligand; method marked (s), first pKa)	pKa, second value (s) (pKa of the ligand; method marked (s), second pKa)	DpH 7.4 [3]	pMpH 7.45 [5]	Logβ3 [6]	pKa (pKa of the ligand; [7])	pKa (pKa of the ligand; [8])	pKa (pKa of the ligand; [9])	pKa (pKa of the ligand; [10])	also measured
CCC(O)c1c(O)c(=O)cc(C)n1C (stereo not drawn) (as salt: hydrochloride) [CP374, 1,6-Dimethyl-2-(1-hydroxypropyl)-3-hydroxy-pyridin-4(1H)-one hydrochloride]	221 to 223 °C	–	–	–	–	–	–	–	–	–	–
CCC(OC)c1c(O)c(=O)cc(C)n1C (stereo not drawn) (as salt: hydrochloride) [CP375, 1,6-Dimethyl-2-(1-methoxypropyl)-3-hydroxy-pyridin-4(1H)-one hydrochloride]	225 to 227 °C	–	–	–	–	–	–	–	–	–	–
COCc1cc(=O)c(O)c(COC)n1C (as salt: hydrochloride) [CP388, 2,6-Dimethoxymethyl-1-methyl-3-hydroxypyridin-4(1H)-one hydrochloride]	161 to 163 °C	–	–	–	–	–	–	–	–	–	–
CNC(=O)c1c(O)c(=O)cc(C)n1C (as salt: hydrochloride) [CP502, 1,6-Dimethyl-3-hydroxy-4(1H)-pyridinone-2-carboxy-(N-methyl)-amide hydrochloride]	238 °C (dec.)	–	–	–	–	–	–	–	–	–	–
COCCNC(=O)c1c(O)c(=O)cc(C)n1C (as salt: hydrochloride) [CP506, 1,6-Dimethyl-3-hydroxy-4(1H)-pyridinone-2-carboxy-(N-2′-methoxyethyl)-amide hydrochloride]	204 to 206 °C	–	–	–	–	–	–	–	–	–	–
Cc1cc(=O)c(O)c(C(=O)NCCO)n1C (as salt: hydrochloride) [CP507, 1,6-Dimethyl-3-hydroxy-4(1H)-pyridinone-2-carboxy-(N-2′-hydroxyethyl)-amide hydrochloride]	178 to 181 °C	–	–	–	–	–	–	–	–	–	–
Cc1cc(=O)c(O)c(C(=O)N(C)C)n1C (as salt: hydrochloride) [CP508, 1,6-Dimethyl-3-hydroxy-4(1H)-pyridinone-2-carboxy-(N,N-dimethyl)-amide hydrochloride]	219 °C (dec.)	–	–	–	–	–	–	–	–	–	–
Cc1c(O)c(=O)ccn1C [CP20, reference compound]	–	3.56	9.64	0.17	19.4	36.3	–	–	–	–	Iron Mobilisation ([1]; 150 μmol/kg): 6.3 ± 2.1%; Efficacy ([1]; 150 μmol/kg): 2.4%; Iron Mobilisation ([1]; 300 μmol/kg): 9.2 ± 2.2%; Efficacy ([1]; 300 μmol/kg): 5.4%; Iron Mobilisation ([1]; 450 μmol/kg): 13.4 ± 5.2%; Efficacy ([1]; 450 μmol/kg): 9.5%; effectiveness in man [2]: effective in man; crossing of placenta and blood brain barrier [4]: able to cross the placenta and blood brain barrier; phase II metabolism [4]: rapidly inactivated by phase II metabolism
CCc1c(O)c(=O)ccn1CC [CP94, 1,2-diethyl-3-hydroxypyridin-4-one, reference compound]	–	–	–	1.79	19.7	36.7	–	–	–	–	Iron Mobilisation ([1]; 150 μmol/kg): 16.5 ± 6.2%; Efficacy ([1]; 150 μmol/kg): 12.6%; Iron Mobilisation ([1]; 300 μmol/kg): 35.7 ± 4.4%; Efficacy ([1]; 300 μmol/kg): 31.8%; Iron Mobilisation ([1]; 450 μmol/kg): 59.7 ± 10.9%; Efficacy ([1]; 450 μmol/kg): 55.8%; effectiveness in man [2]: effective in man; crossing of placenta and blood brain barrier [4]: able to cross the placenta and blood brain barrier; phase II metabolism [4]: rapidly inactivated by phase II metabolism
CCn1ccc(=O)c(O)c1CO [CP359, 1-Ethyl-2-hydroxymethyl-3-hydroxy-pyridin-4(1H)-one hydrochloride]	–	2.88	9.05	0.14	20.96	35.25	–	–	–	–	–
Cc1cc(=O)c(O)c(CO)n1C [CP360, 1,6-Dimethyl-2-hydroxymethyl-3-hydroxy-pyridin-4(1H)-one hydrochloride]	–	3.37	9.42	0.098	20.43	35.51	–	–	–	–	–
Cc1cc(=O)c(O)c(C(C)O)n1C (stereo not drawn) [CP361, 1,6-Dimethyl-2-(1-hydroxyethyl)-3-hydroxy-pyridin-4(1H)-one hydrochloride]	–	3.55	8.97	0.25	21.47	3.52	–	–	–	–	–
Cn1ccc(=O)c(O)c1CO [CP364, 1-Methyl-2-hydroxymethyl-3-hydroxy-pyridin-4(1H)-one hydrochloride]	–	2.93	–	0.048	20.75	35.3	3.13	9.22	9.12	–	–
CCn1ccc(=O)c(O)c1C(C)O (stereo not drawn) [CP365, 1-Ethyl-2-(1-hydroxyethyl)-3-hydroxy-pyridin-4(1H)-one hydrochloride]	–	3.11	8.74	0.27	21.3	34.8	–	–	–	–	–
O=c1ccn(CCCO)c(CO)c1O [CP366, 1-(3-hydroxypropyl)-2-hydroxymethyl-3-hydroxy-pyridin-4(1H)-one]	138 to 139 °C	2.87	9.14	0.056	20.69	35.25	–	–	–	–	–
CCn1c(C)cc(=O)c(O)c1CO [CP369, 1-Ethyl-2-hydroxymethyl-3-hydroxy-6-methyl-pyridin-4(1H)-one hydrochloride]	–	3.28	9.38	0.223	20.35	35.6	–	–	–	–	–
CC(O)c1c(O)c(=O)ccn1CCCO (stereo not drawn) [CP372, 1-(3-hydroxypropyl)-2-(1-hydroxyethyl)-3-hydroxy-pyridin-4(1H)-one hydrochloride]	–	2.96	8.69	0.075	21.48	34.67	–	–	–	–	–
CCC(O)c1c(O)c(=O)cc(C)n1C (stereo not drawn) [CP374, 1,6-Dimethyl-2-(1-hydroxypropyl)-3-hydroxy-pyridin-4(1H)-one hydrochloride]	–	–	8.98	0.73	20.95	35.03	2.76	–	–	2.78	Iron Mobilisation ([1]; 150 μmol/kg): 34.0 ± 4.3%; Efficacy ([1]; 150 μmol/kg): 30.1%; Iron Mobilisation ([1]; 450 μmol/kg): 60.4 ± 15.6%; Efficacy ([1]; 450 μmol/kg): 56.5%
COCc1cc(=O)c(O)c(COC)n1C [CP388, 2,6-Dimethoxymethyl-1-methyl-3-hydroxypyridin-4(1H)-one hydrochloride]	–	–	–	0.40	21.1	34.5	2.93	8.87	8.77	2.73	–
CNC(=O)c1c(O)c(=O)cc(C)n1C [CP502, 1,6-Dimethyl-3-hydroxy-4(1H)-pyridinone-2-carboxy-(N-methyl)-amide hydrochloride]	–	–	–	0.04	23.42	35.78	2.83	8.38	8.36	2.64	–
Cc1cc(=O)c(O)c(C(=O)NC(C)C)n1C [CP504, 1,6-Dimethyl-3-hydroxy-4(1H)-pyridinone-2-carboxy-(N-isopropyl)-amide hydrochloride]	–	–	–	0.30	22.46	35.34	2.81	8.74	8.56	2.64	–
COCCNC(=O)c1c(O)c(=O)cc(C)n1C [CP506, 1,6-Dimethyl-3-hydroxy-4(1H)-pyridinone-2-carboxy-(N-2′-methoxyethyl)-amide hydrochloride]	–	–	–	0.04	22.57	34.88	2.62	8.34	8.35	2.5	–
Cc1cc(=O)c(O)c(C(=O)NCCO)n1C [CP507, 1,6-Dimethyl-3-hydroxy-4(1H)-pyridinone-2-carboxy-(N-2′-hydroxyethyl)-amide hydrochloride]	–	–	–	0.02	22.73	34.63	2.65	8.28	8.19	2.57	–
Cc1cc(=O)c(O)c(C(=O)N(C)C)n1C [CP508, 1,6-Dimethyl-3-hydroxy-4(1H)-pyridinone-2-carboxy-(N,N-dimethyl)-amide hydrochloride]	–	–	–	0.16	23.46	35.13	2.61	8.1	8.1	2.61	–
O=c1ccn(CCO)c(C(O)c2ccccc2)c1O (stereo not drawn) [Novartis bidentate ligand (3), reference compound]	–	–	–	2.81	23.15	35.57	2.59	8.38	8.39	2.6	–
